The test system of experiment [1] is PC-3 human prostate cancer cell strain. The experiment is described as follows: Antitumor cell proliferation in vitro, CCK-8 detection kit, PC-3. It counts as cell-based. The note with it: Homo sapiens, PC-3, 72 h, PC-3 cells, 1st and 2nd test where printed. As to the method: (§1) The half inhibitory concentration IC50 of proliferation of three kinds of tumor cell strain (U87MG, PC-3, BT474) for 12 candidate compounds of the present invention is detected by CCK-8 detection kits.
PC-3 human prostate cancer cell strain (cell bank of Chinese Academy of Sciences)
(§2) The studied compounds are dissolved by DMSO to make the final concentration 10 mM.
(§3) • a) Collecting the cells in logarithmic phase, counting, and resuspending the cells with complete medium. • b) Adjusting the concentration of cells to a suitable concentration, inoculating in 96 well plates, each well is inoculated to 100 μl cell suspension.
(§4) c) incubating cells for 24 hours in a 5% CO2 incubator at temperature of 37° C., under the condition of 100% relative humidity.
(§5) a) The cells in logarithmic phase is collected, counted, resuspended with complete medium. The concentration of cells is adjusted to a suitable concentration (determined in accordance with the optimizable test results of cell density), and the cells is inoculated in 96 well plates, wherein each well is inoculated 100 μl cell suspension, Cells are incubated for 24 hours in 5% CO2 incubator at temperature of 37° C. under the condition of 100% relative humidity.
(§6) b) The test compounds are diluted to 500 μM with culture medium, then diluted in series eight times. […] as 25 μl/well. The final concentrations of the compounds are diluted from 100 μM to 0 μM, with 4 times dilution, and there are a total of 10 concentration points.
(§7) c) Cells are incubated for 72 hours in 5% CO2 incubator at temperature of 37° C. under the condition of 100% relative humidity.
(§8) d) The culture medium is aspirated and discarded, and complete medium containing 10% CCK-8 is incubated in a incubator at 37° C. for 2˜4 hours.
(§9) e) After shocking gently, the absorbance of the culture medium is measured at 450 nm wavelength on SpectraMax M5 Microplate Reader, with the absorbance at 650 nm as reference, to calculate the inhibition rate.
On the technique in general: Formazan colour is commonly taken as a measure of viable cells.

Experiment [2] has as its system BT474 human breast cancer cell strain. The experiment is described as follows: Antitumor cell proliferation in vitro, CCK-8 detection kit, BT474. Type of experiment: cell-based. The note with it: Homo sapiens, BT-474, 72 h, BT-474 cells, 1st and 2nd test where printed. As to the method:
as §1
BT474 human breast cancer cell strain (cell bank of Chinese Academy of Sciences) Reagents and materials:
as §2, §3, §4, §5, §6, §7, §8, §9

In another experiment the target is T1, PI3K α (Homo sapiens, UniProt P42336).
T1 construct: purchased Millipore 14-602
The experiment is described as follows: Inhibitory activity to PI3K α, PI 3-Kinase (human) HTRF Assay kit. Type of experiment: biochemical. The note with it: read-out: % Inhibition Rate to PI3K α. In a few lines:
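HTRF assay using human PI3Kα at 8 ng/well, 100 μM ATP and PIP2 (2× working stock 20 μM) in 20 μL reaction containing 1% DMSO. Screened at 10 μM and 1 μM for percent inhibition, with selected compounds then taken to IC50 determination.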

For another experiment, the target named is T2, PI3 K γ (Homo sapiens, UniProt P48736).
T2 construct: purchased Biology, Medicilon
In words: Inhibitory activity to PI3K γ, PI 3-Kinase (human) HTRF Assay kit. It counts as biochemical. The note with it: for Inhibition rate % to PI3 K γ: dihydrate di-methanesulfonate. The gist of the method:
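HTRF kinase assay with PI3Kγ at 80 ng/well, 10 μM PIP2 and 100 μM ATP (both final) in DTT-containing reaction buffer, 1% DMSO. Preliminary screen at 10 μM and 1 μM compound, followed by IC50 determination for selected compounds.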
(TR-FRET usually uses a lanthanide donor and a delayed reading to cut background.)

The target of the next experiment is T3, PI3Kδ (Homo sapiens, UniProt O00329).
T3 construct: purchased Millipore 14-604
In words: Inhibitory activity to PI3K δ, PI 3-Kinase (human) HTRF Assay kit. Type of experiment: biochemical. The gist of the method: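 Inhibition of human PI3Kδ was assessed with the Millipore PI 3-Kinase (human) HTRF Assay kit. PI3Kδ was screened at 2 ng/well, diluted in 2×PIP2 operating fluid. Reactions were 20 μL and contained 100 μM ATP. Stop solution was Stop A and Stop B mixed 3:1. Detection solution was DM C, DM A and DM B mixed 18:1:1. Compounds were prepared from DMSO stocks, and percent inhibition was reported.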

Where [3] appears, read: 10 μM (Table 7), read-out: Inhibition rate % to PI3Kδ.

Structures can show the parent of a compound that is named as a salt. Where two headings read alike, the source gives them in different places.

T3 sequence (O00329 whole entry): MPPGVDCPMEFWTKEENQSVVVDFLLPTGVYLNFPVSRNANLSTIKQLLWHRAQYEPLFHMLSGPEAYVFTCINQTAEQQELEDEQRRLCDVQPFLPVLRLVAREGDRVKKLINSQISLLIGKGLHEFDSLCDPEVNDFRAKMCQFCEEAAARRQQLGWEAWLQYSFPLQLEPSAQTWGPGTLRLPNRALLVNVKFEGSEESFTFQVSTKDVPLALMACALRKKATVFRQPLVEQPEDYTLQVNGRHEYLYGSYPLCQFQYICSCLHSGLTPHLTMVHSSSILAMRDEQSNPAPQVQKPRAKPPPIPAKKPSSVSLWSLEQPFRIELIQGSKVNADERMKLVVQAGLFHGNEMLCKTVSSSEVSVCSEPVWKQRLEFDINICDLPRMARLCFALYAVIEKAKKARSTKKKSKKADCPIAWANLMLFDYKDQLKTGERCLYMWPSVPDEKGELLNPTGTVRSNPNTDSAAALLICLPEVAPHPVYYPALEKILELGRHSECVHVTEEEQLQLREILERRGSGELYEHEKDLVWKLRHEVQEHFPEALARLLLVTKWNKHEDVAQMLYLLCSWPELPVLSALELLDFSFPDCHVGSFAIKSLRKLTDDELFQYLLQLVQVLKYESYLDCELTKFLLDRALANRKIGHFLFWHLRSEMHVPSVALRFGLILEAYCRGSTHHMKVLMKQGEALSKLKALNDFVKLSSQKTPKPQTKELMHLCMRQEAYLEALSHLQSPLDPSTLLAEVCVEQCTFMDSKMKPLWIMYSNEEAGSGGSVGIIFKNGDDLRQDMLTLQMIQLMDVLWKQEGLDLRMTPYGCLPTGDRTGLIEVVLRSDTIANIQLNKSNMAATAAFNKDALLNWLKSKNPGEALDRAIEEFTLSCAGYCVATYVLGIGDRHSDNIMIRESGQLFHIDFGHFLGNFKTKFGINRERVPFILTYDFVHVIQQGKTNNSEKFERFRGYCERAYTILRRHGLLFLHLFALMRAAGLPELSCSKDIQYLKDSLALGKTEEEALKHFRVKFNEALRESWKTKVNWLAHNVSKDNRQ
T3 sequence (P27986 whole entry partner): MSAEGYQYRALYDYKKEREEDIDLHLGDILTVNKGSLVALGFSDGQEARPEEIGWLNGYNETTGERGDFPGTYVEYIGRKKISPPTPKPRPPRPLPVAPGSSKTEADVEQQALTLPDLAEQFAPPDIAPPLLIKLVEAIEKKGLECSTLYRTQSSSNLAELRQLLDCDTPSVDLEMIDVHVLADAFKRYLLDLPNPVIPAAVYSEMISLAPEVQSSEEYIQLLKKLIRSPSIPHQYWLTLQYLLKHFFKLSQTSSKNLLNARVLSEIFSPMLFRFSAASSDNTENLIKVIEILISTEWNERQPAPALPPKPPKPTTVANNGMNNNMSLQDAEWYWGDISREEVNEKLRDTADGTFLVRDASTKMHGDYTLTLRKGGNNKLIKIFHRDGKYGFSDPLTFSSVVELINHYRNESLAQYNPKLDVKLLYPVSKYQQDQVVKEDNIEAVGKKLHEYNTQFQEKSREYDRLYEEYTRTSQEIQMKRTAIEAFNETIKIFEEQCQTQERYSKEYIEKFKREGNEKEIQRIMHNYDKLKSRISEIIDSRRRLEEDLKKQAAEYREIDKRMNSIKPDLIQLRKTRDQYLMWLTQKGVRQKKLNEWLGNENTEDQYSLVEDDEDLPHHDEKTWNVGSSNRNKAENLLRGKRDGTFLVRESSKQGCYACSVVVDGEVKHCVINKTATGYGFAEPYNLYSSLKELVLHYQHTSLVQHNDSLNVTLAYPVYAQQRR
T2 sequence (P48736 whole entry): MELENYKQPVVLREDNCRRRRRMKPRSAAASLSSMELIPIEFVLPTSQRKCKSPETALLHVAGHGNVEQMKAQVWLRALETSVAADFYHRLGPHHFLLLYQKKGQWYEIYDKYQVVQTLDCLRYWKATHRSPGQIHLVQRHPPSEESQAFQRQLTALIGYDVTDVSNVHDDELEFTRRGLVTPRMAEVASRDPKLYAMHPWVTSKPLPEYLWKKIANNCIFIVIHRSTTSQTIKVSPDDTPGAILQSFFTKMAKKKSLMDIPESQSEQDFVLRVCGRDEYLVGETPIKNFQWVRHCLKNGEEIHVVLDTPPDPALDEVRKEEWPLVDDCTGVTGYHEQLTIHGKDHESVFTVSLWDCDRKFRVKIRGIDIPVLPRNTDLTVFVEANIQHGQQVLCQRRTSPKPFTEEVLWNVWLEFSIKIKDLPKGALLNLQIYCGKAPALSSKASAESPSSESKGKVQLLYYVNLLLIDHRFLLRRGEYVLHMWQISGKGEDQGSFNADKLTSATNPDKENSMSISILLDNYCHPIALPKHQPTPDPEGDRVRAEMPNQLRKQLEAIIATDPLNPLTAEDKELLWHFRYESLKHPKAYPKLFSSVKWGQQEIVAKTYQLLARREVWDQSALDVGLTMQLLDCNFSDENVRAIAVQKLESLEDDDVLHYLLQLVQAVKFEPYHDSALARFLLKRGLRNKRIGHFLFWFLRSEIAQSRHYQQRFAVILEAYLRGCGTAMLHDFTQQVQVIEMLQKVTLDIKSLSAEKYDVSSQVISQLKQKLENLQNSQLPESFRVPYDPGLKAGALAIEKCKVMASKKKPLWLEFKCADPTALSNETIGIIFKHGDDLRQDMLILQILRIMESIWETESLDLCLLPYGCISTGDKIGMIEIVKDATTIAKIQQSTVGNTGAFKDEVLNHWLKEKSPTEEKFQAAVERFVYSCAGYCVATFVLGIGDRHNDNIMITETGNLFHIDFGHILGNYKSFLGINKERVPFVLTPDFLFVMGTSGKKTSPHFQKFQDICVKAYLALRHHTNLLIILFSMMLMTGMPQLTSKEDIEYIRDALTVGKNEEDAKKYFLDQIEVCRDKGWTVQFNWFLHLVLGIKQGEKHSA
T1 sequence (P42336 whole entry): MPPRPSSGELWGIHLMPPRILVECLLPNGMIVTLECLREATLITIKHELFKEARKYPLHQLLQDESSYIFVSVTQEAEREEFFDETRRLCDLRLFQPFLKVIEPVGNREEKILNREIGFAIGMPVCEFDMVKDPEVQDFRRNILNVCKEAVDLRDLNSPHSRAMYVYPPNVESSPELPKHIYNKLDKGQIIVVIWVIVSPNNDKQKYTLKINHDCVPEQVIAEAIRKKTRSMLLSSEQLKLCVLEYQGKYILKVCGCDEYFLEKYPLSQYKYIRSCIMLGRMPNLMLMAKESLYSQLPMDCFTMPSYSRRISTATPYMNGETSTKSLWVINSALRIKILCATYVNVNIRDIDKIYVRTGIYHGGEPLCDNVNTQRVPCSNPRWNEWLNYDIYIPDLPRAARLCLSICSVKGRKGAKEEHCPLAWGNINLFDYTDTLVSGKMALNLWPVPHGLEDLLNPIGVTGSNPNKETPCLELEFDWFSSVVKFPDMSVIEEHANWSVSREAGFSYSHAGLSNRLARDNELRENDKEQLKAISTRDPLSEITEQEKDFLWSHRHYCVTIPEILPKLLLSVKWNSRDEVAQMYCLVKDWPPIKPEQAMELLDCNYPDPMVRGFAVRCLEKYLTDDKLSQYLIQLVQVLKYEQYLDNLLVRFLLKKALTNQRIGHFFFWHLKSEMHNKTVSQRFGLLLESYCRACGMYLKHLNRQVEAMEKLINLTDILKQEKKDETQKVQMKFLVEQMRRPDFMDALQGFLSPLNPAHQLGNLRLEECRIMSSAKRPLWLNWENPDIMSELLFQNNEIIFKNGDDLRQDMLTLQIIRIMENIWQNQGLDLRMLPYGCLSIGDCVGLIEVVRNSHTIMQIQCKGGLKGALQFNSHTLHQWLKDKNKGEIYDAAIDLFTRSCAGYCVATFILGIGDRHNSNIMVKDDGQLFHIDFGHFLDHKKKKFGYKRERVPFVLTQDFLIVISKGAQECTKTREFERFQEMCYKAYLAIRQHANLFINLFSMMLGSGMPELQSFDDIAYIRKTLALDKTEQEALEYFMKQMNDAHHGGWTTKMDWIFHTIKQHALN
T1 sequence (P27986 whole entry partner): as the sequence (P27986 whole entry partner) above

In general, IC50 refers to the midpoint of a concentration-inhibition curve. A high value points to a need for much substance. For `c1ccc(-c2ccnc3ccc(Nc4nc(NC5CC5)c5nc[nH]c5n4)cc23)cc1` [MED1007-91, N6-cyclopropyl-N2-(4-phenylquinoline-6-yl)-9H-purine-2,6-diammonium salt dihydrate di-methanesulfonate], the IC50 was 654 nM in experiment [1] and 523 nM in experiment [2]. The inhibition at 1 µM on PI3K α turned out to be 97%. Further, the inhibition at 10 µM at PI3K α was found to be 124%; at PI3Kδ (setting [3]), 115%. The “Inhibition rate % to PI3 K γ” value is reported as 29.82% at PI3 K γ (1 μM) and 81.29% at PI3 K γ (10 μM). On PI3Kδ (1 μM (Table 7), dihydrate di-methanesulfonate, 1 µM), the “Inhibition rate % to PI3Kδ” value stood at 96.32%.

On to `COC[C@H]1OC(=O)c2coc3c2[C@@]1(C)C1=C(C3=O)[C@@H]2CCC(=O)[C@@]2(C)C[C@H]1OC(C)=O` [Wortmannin, reference compound], for which the IC50 in experiment [1] is 21600 nM; in experiment [2] it was 5210 nM. For the same compound, the inhibition at 1 µM at PI3K α was 109%; at PI3 K γ (1 μM, read-out: Inhibition rate % to PI3 K γ) it was 105%; at PI3Kδ (1 μM (Table 7), read-out: Inhibition rate % to PI3Kδ) it was 95.4%. For the same compound, the inhibition at 10 µM at PI3K α was 105%; on PI3 K γ (10 μM, read-out: Inhibition rate % to PI3 K γ), 101%; at PI3Kδ (setting [3]) it was 108%; at PI3Kδ (10 μM (Table 8), read-out: Inhibition rate % to PI3K delta), 105%. In addition, the inhibition at 0.4 µM at PI3Kδ (0.4 μM (Table 8), read-out: Inhibition rate % to PI3K delta) came to 93.4%. For the same compound, the inhibition at 2 µM on PI3Kδ (read-out: Inhibition rate % to PI3K delta) was determined as 109%.

(Values after US9718823B2, “2, 6-Di-nitrogen-containing substituted purine derivative, and preparation method, pharmaceutical composition and use thereof” (Zhejiang Medicine Co., Ltd. Xinchang Pharmaceutical Factory, priority 2013, dated 2017).)
